Measured values published in the supplement of paper PMC11451515.

System: P12-Ichikawa
Assay: cell viability relative to DMSO control; higher = less cytotoxic
Settings: 48 h
Summary of the method: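 Before seeding, each leukemia line was adapted for at least four passages in each medium. NOMO1 or SEM cells (500 cells/well) and P12-Ichikawa cells (1000 cells/well) went into 1536-well plates at 5 μl, then received library compounds in DMSO by pin dosing across 11 threefold concentrations, 47 μM to 0.79 nM. Readout was CellTiter-Glo One luminescence after 48 h at 37°C, and viability is given as a per-plate percentage of DMSO wells, with cell-free wells as background.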

[1] = HPLM + 10% dialyzed FBS, 0.000781 µM
[2] = HPLM + 10% dialyzed FBS, 0.00234 µM
[3] = HPLM + 10% dialyzed FBS, 0.00702 µM
[4] = HPLM + 10% dialyzed FBS, 0.0211 µM
[5] = HPLM + 10% dialyzed FBS, 0.0632 µM
[6] = HPLM + 10% dialyzed FBS, 0.19 µM
[7] = HPLM + 10% dialyzed FBS, 0.569 µM
[8] = HPLM + 10% dialyzed FBS, 1.71 µM
[9] = HPLM + 10% dialyzed FBS, 5.12 µM
[10] = HPLM + 10% dialyzed FBS, 15.4 µM
[11] = HPLM + 10% dialyzed FBS, 46.1 µM
[12] = RPMI 5 mM glucose + 10% FBS, 0.000781 µM
[13] = RPMI 5 mM glucose + 10% FBS, 0.00234 µM
[14] = RPMI 5 mM glucose + 10% FBS, 0.00702 µM
[15] = RPMI 5 mM glucose + 10% FBS, 0.0211 µM
[16] = RPMI 5 mM glucose + 10% FBS, 0.0632 µM
[17] = RPMI 5 mM glucose + 10% FBS, 0.19 µM
[18] = RPMI 5 mM glucose + 10% FBS, 0.569 µM
[19] = RPMI 5 mM glucose + 10% FBS, 1.71 µM
[20] = RPMI 5 mM glucose + 10% FBS, 5.12 µM
[21] = RPMI 5 mM glucose + 10% FBS, 15.4 µM
[22] = RPMI 5 mM glucose + 10% FBS, 46.1 µM
[23] = RPMI 5 mM glucose + 10% dialyzed FBS, 0.000781 µM
[24] = RPMI 5 mM glucose + 10% dialyzed FBS, 0.00234 µM
[25] = RPMI 5 mM glucose + 10% dialyzed FBS, 0.00702 µM
[26] = RPMI 5 mM glucose + 10% dialyzed FBS, 0.0211 µM
[27] = RPMI 5 mM glucose + 10% dialyzed FBS, 0.0632 µM
[28] = RPMI 5 mM glucose + 10% dialyzed FBS, 0.19 µM
[29] = RPMI 5 mM glucose + 10% dialyzed FBS, 0.569 µM
[30] = RPMI 5 mM glucose + 10% dialyzed FBS, 1.71 µM
[31] = RPMI 5 mM glucose + 10% dialyzed FBS, 5.12 µM
[32] = RPMI 5 mM glucose + 10% dialyzed FBS, 15.4 µM
[33] = RPMI 5 mM glucose + 10% dialyzed FBS, 46.1 µM

Row | SMILES | cell viability [1] [%] | cell viability [2] [%] | cell viability [3] [%] | cell viability [4] [%] | cell viability [5] [%] | cell viability [6] [%] | cell viability [7] [%] | cell viability [8] [%] | cell viability [9] [%] | cell viability [10] [%] | cell viability [11] [%] | cell viability [12] [%] | cell viability [13] [%] | cell viability [14] [%] | cell viability [15] [%] | cell viability [16] [%] | cell viability [17] [%] | cell viability [18] [%] | cell viability [19] [%] | cell viability [20] [%] | cell viability [21] [%] | cell viability [22] [%] | cell viability [23] [%] | cell viability [24] [%] | cell viability [25] [%] | cell viability [26] [%] | cell viability [27] [%] | cell viability [28] [%] | cell viability [29] [%] | cell viability [30] [%] | cell viability [31] [%] | cell viability [32] [%] | cell viability [33] [%]
1 | CC#CCn1c(N2CCC[C@@H](N)C2)nc2c1c(=O)n(Cc1nc(C)c3ccccc3n1)c(=O)n2C | 104 | 104 | 99.3 | 89.2 | 108 | 109 | 104 | 97.8 | 103 | 99.7 | 88.5 | 94.9 | 102 | 102 | 85.9 | 96.8 | 94.6 | 96.1 | 93.9 | 91.2 | 87.4 | 94.9 | 104 | 102 | 98.4 | 83.6 | 100 | 109 | 101 | 95.9 | 97.6 | 85.1 | 85.9
2 | CCCCCNC(=O)N1CCC(CN(Cc2ccc(Cl)cc2)Cc2ccc([N+](=O)[O-])s2)C1 (configuration not stated) | 113 | 127 | 119 | 121 | 111 | 114 | 111 | 110 | 103 | 96.9 | 85.6 | 108 | 116 | 113 | 107 | 114 | 100 | 107 | 97 | 103 | 90.4 | 74.2 | 123 | 104 | 104 | 117 | 111 | 113 | 109 | 95.2 | 101 | 94.3 | 78.9
3 | O=C(O)C(=O)c1cn(Cc2ccccc2)c2ccc(-c3ccc(OC(F)(F)F)cc3)cc12 | 106 | 105 | 109 | 110 | 111 | 109 | 97.6 | 103 | 98.2 | 95 | 93.4 | 99.9 | 109 | 102 | 102 | 100 | 99.9 | 109 | 103 | 102 | 98.4 | 87 | 95.9 | 103 | 98.7 | 101 | 101 | 97.2 | 94.4 | 91.6 | 102 | 99.6 | 90.2
4 | OCC(O)C(O)C(O)CO (configuration not stated) | 95.6 | 102 | 97.8 | 99.8 | 98.4 | 94.3 | 103 | 92.3 | 88.1 | 88.7 | 87.7 | 83.8 | 96 | 95.3 | 95.4 | 91.1 | 92.3 | 99 | 87.1 | 86.3 | 77.8 | 89.1 | 87.2 | 89.9 | 95.3 | 89.8 | 97.2 | 89.9 | 93.7 | 85.4 | 88.3 | 79.2 | 91.8
5 | COc1ccc2c(c1)[C@]13CCCCC1C(C2)N(C)CC3 (some centres not stated) | 107 | 118 | 114 | 116 | 116 | 122 | 124 | 126 | 113 | 127 | 117 | 111 | 127 | 119 | 124 | 128 | 129 | 134 | 118 | 133 | 128 | 107 | 106 | 112 | 119 | 120 | 121 | 117 | 126 | 122 | 119 | 122 | 20.9
6 | COC(=O)C\1=C(C)\N\C(=C(/C1C2=CC=CC3=NON=C23)C(=O)OC(C)C)C (configuration not stated) | 100 | 102 | 99.4 | 95 | 102 | 93.8 | 96.9 | 96.1 | 88 | 90.2 | 87.7 | 96.1 | 101 | 100 | 94.8 | 104 | 98.8 | 93.1 | 94.2 | 87 | 86.9 | 87.4 | 97.6 | 94.6 | 88.5 | 95.2 | 101 | 90.4 | 88.7 | 87.2 | 93.4 | 86.6 | 86.1
7 | COc1cccc2c1C(=O)c1c(O)c3c(c(O)c1C2=O)C[C@@](O)(C(=O)CO)C[C@@H]3O[C@H]1C[C@H](N)[C@H](O)[C@H](C)O1 | 115 | 114 | 112 | 117 | 116 | 107 | 98.6 | 58.2 | 7.45 | 5.63 | 11.9 | 113 | 116 | 119 | 114 | 113 | 108 | 93.8 | 44.7 | 7.04 | 5.82 | 8.62 | 109 | 114 | 108 | 107 | 117 | 106 | 92.2 | 67 | 7.81 | 7.58 | 13
8 | O=C(O)c1cccnc1Nc1cccc(C(F)(F)F)c1 | 112 | 111 | 111 | 118 | 119 | 128 | 112 | 131 | 129 | 129 | 124 | 115 | 117 | 113 | 120 | 124 | 143 | 129 | 132 | 141 | 138 | 108 | 104 | 108 | 115 | 112 | 112 | 119 | 115 | 113 | 121 | 131 | 117
9 | Cc1cc2c(C(N)=O)cccc2n1-c1nc2c(c(NCc3ccccc3)n1)COCC2 | 99.5 | 92.4 | 92.2 | 93.2 | 99.8 | 89.6 | 78.4 | 85.9 | 2.18 | 2.06 | 3.98 | 99.6 | 96.2 | 95.5 | 93.8 | 91.2 | 94.6 | 81.7 | 63.1 | 2.37 | 1.97 | 2.61 | 95.9 | 94.4 | 95.6 | 97.7 | 96.3 | 95.4 | 91.8 | 72.9 | 2.73 | 2.42 | 2.96
